Values of other authors, collected in PMC9516332 (Frontiers in Oncology, 2022).
Where two headings read alike, the source gives them in different places.

Assays:
Settings in all cases: cited from earlier work
[1] = target: T1, panel of 255 wild-type kinases (Homo sapiens, UniProt O14965)
T1 sequence (O14965 1-403): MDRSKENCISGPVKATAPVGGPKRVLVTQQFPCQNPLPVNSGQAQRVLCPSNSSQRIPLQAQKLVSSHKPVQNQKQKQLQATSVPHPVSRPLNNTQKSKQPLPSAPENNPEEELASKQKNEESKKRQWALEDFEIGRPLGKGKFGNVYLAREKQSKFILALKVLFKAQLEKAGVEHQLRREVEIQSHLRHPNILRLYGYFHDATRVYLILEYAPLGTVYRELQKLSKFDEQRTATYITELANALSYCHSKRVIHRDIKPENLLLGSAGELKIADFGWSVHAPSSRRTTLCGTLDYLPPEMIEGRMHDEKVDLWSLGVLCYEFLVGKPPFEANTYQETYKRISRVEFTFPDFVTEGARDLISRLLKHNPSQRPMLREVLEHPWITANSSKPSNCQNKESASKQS

[2] = target: panel of 255 wild-type kinases (Homo sapiens, UniProt Q9H4B4)
[3] = target: panel of 255 wild-type kinases (Homo sapiens, UniProt Q06187)
[4] = target: panel of 255 wild-type kinases (Homo sapiens, UniProt Q9Y6M4)
[5] = target: T2, panel of 255 wild-type kinases (Homo sapiens, UniProt P53778)
T2 sequence (P53778 1-367): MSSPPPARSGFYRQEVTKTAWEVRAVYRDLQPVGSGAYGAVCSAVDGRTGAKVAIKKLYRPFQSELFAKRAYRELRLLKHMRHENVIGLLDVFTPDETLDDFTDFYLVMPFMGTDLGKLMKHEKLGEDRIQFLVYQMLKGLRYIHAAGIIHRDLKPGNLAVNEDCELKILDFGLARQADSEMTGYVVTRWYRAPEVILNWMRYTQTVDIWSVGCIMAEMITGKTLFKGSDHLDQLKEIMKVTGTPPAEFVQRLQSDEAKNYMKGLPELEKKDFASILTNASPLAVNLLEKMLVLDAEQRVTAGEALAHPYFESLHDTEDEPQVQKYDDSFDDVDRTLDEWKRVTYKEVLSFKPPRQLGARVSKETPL

[6] = target: panel of 255 wild-type kinases (Homo sapiens, UniProt P14616)
[7] = target: panel of 255 wild-type kinases (Homo sapiens, UniProt P17612)
[8] = target: panel of 255 wild-type kinases (Homo sapiens, UniProt P07949)
[9] = target: T3, panel of 255 wild-type kinases (Homo sapiens, UniProt Q9NWZ3)
T3 sequence (Q9NWZ3 1-460): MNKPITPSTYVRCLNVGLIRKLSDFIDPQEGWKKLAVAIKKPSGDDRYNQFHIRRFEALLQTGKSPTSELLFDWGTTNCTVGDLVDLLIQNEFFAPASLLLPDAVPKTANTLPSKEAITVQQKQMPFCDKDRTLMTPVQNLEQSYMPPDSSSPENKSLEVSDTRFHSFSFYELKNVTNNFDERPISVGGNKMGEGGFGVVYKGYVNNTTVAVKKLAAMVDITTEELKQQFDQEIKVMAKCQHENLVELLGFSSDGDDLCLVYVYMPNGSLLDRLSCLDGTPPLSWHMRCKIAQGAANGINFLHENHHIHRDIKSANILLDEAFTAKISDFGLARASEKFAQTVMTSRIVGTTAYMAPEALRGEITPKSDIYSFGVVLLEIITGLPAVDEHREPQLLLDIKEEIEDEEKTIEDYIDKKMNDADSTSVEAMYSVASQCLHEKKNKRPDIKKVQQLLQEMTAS

[10] = target: T4, panel of 255 wild-type kinases (Homo sapiens, UniProt P51813)
T4 sequence (P51813 1-675): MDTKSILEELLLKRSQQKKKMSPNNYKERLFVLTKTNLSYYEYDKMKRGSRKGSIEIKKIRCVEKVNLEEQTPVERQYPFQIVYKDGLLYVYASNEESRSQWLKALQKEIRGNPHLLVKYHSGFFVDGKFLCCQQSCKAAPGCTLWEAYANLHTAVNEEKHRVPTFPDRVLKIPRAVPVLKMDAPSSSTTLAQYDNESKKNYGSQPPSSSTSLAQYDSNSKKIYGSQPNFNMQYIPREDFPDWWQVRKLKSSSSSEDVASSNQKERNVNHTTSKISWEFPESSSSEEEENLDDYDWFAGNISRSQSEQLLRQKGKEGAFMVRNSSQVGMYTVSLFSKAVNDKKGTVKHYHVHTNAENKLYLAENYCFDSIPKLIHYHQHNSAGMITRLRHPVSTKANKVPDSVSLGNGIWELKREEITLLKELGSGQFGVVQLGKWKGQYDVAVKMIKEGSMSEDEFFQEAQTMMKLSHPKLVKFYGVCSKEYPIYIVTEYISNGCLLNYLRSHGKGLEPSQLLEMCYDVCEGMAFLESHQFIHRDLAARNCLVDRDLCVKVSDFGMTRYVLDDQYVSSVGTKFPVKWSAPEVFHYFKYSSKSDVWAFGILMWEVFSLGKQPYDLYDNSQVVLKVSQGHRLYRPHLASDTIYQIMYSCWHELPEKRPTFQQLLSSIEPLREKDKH

[11] = AurA kinase assay, 1 µmol/L single concentration, ref DOI: 10.1158/1535-7163.MCT-18-0877
[12] = AurA/TPX2 kinase assay, 1 µmol/L single concentration, ref DOI: 10.1158/1535-7163.MCT-18-0877
[13] = kinase PLK3, 1 µmol/L single concentration, ref DOI: 10.1158/1535-7163.MCT-18-0877
[14] = BTK kinase assay, 1 µmol/L single concentration, ref DOI: 10.1158/1535-7163.MCT-18-0877
[15] = kinase CK1γ3, 1 µmol/L single concentration, ref DOI: 10.1158/1535-7163.MCT-18-0877
[16] = p38γ, 1 µmol/L single concentration, ref DOI: 10.1158/1535-7163.MCT-18-0877
[17] = kinase IRR, 1 µmol/L single concentration, ref DOI: 10.1158/1535-7163.MCT-18-0877
[18] = kinase PKACα, 1 µmol/L single concentration, ref DOI: 10.1158/1535-7163.MCT-18-0877
[19] = kinase RET, 1 µmol/L single concentration, ref DOI: 10.1158/1535-7163.MCT-18-0877
[20] = kinase IRAK4, 1 µmol/L single concentration, ref DOI: 10.1158/1535-7163.MCT-18-0877
[21] = BMX kinase assay, 1 µmol/L single concentration, ref DOI: 10.1158/1535-7163.MCT-18-0877
[22] = kinase PLK3, 1 µmol/L single concentration, ref DOI: 10.1371/journal.pone.0092146
[23] = kinase PKACα, 1 µmol/L single concentration, ref DOI: 10.1371/journal.pone.0092146
[24] = kinase IRAK4, 1 µmol/L single concentration, ref DOI: 10.1371/journal.pone.0092146
[25] = BTK kinase assay, 1 µmol/L single concentration, ref DOI: 10.1371/journal.pone.0092146
[26] = p38γ, 1 µmol/L single concentration, ref DOI: 10.1371/journal.pone.0092146
[27] = BMX kinase assay, 1 µmol/L single concentration, ref DOI: 10.1371/journal.pone.0092146
[28] = kinase IRR, 1 µmol/L single concentration, ref DOI: 10.1371/journal.pone.0092146
[29] = kinase RET, 1 µmol/L single concentration, ref DOI: 10.1371/journal.pone.0092146

CC#CC(=O)N1CCC[C@H]1c1nc(-c2ccc(C(=O)Nc3ccccn3)cc2)c2c(N)nccn12 [acalabrutinib]
%-inhibition AurA [1, 11]: 2.34% | %-inhibition AurA/TPX2 [1, 12]: -4.71% | %-inhibition at 1 µmol/L, PLK3 [2, 13]: 1.76% | %-inhibition BTK [3, 14]: 95% | %-inhibition at 1 µmol/L, CK1γ3 [4, 15]: -15% | %-inhibition, p38γ [5, 16]: -1.74% | %-inhibition at 1 µmol/L, IRR [6, 17]: -0.87% | %-inhibition at 1 µmol/L, PKACα [7, 18]: -5% | %-inhibition at 1 µmol/L, RET [8, 19]: 14% | %-inhibition at 1 µmol/L, IRAK4 [9, 20]: -6.55%

CCc1cc2c(cc1N1CCC(N3CCOCC3)CC1)C(C)(C)c1[nH]c3cc(C#N)ccc3c1C2=O [alectinib]
%-inhibition AurA [1, 11]: 5% | %-inhibition AurA/TPX2 [1, 12]: -3% | %-inhibition at 1 µmol/L, PLK3 [2, 13]: -4% | %-inhibition BTK [3, 14]: 4.39% | %-inhibition at 1 µmol/L, CK1γ3 [4, 15]: 0.159% | %-inhibition, p38γ [5, 16]: 1.73% | %-inhibition BMX [10, 21]: 4% | %-inhibition at 1 µmol/L, IRR [6, 17]: 57% | %-inhibition at 1 µmol/L, PKACα [7, 18]: 5% | %-inhibition at 1 µmol/L, RET [8, 19]: 91% | %-inhibition at 1 µmol/L, IRAK4 [9, 20]: 19%

COc1cc(N2CCC(N3CCN(C)CC3)CC2)ccc1Nc1ncc(Cl)c(Nc2ccccc2P(C)(C)=O)n1 [brigatinib]
%-inhibition AurA [1]: 79% | %-inhibition AurA/TPX2 [1]: 74% | %-inhibition at 1 µmol/L, PLK3 [2]: -2.57% | %-inhibition BTK [3]: 54% | %-inhibition at 1 µmol/L, CK1γ3 [4]: 0.829% | %-inhibition, p38γ [5]: 3% | %-inhibition BMX [10]: 18% | %-inhibition at 1 µmol/L, IRR [6]: 99% | %-inhibition at 1 µmol/L, PKACα [7]: 17% | %-inhibition at 1 µmol/L, RET [8]: 96% | %-inhibition at 1 µmol/L, IRAK4 [9]: 46%

Cc1cc(Nc2ncc(Cl)c(Nc3ccccc3S(=O)(=O)C(C)C)n2)c(OC(C)C)cc1C1CCNCC1 [ceritinib]
%-inhibition AurA [1, 11]: 12% | %-inhibition AurA/TPX2 [1, 12]: 2.84% | %-inhibition at 1 µmol/L, PLK3 [2, 13]: -0.156% | %-inhibition BTK [3, 14]: -1.88% | %-inhibition at 1 µmol/L, CK1γ3 [4, 15]: 11% | %-inhibition, p38γ [5, 16]: 3.32% | %-inhibition BMX [10, 21]: -0.557% | %-inhibition at 1 µmol/L, IRR [6, 17]: 102% | %-inhibition at 1 µmol/L, PKACα [7, 18]: -8% | %-inhibition at 1 µmol/L, RET [8, 19]: 32% | %-inhibition at 1 µmol/L, IRAK4 [9, 20]: 1.3%

O=C(c1ccc(F)c(F)c1Nc1ccc(I)cc1F)N1CC(O)([C@@H]2CCCCN2)C1 [cobimetinib]
%-inhibition AurA [1, 11]: -0.696% | %-inhibition AurA/TPX2 [1, 12]: -1.88% | %-inhibition at 1 µmol/L, PLK3 [2, 13]: 4% | %-inhibition BTK [3, 14]: 4% | %-inhibition at 1 µmol/L, CK1γ3 [4, 15]: 6% | %-inhibition, p38γ [5, 16]: 2% | %-inhibition BMX [10, 21]: 3.49% | %-inhibition at 1 µmol/L, IRR [6, 17]: -0.403% | %-inhibition at 1 µmol/L, PKACα [7, 18]: -10% | %-inhibition at 1 µmol/L, RET [8, 19]: 4% | %-inhibition at 1 µmol/L, IRAK4 [9, 20]: -4.31%

C[C@@H](Oc1cc(-c2cnn(C3CCNCC3)c2)cnc1N)c1c(Cl)ccc(F)c1Cl [crizotinib]
%-inhibition at 1 µmol/L, PLK3 [2, 22]: -2.24% | %-inhibition at 1 µmol/L, CK1γ3 ([4]; kinase CK1γ3, 1 µmol/L single concentration, ref DOI: 10.1371/journal.pone.0092146): 4% | %-inhibition at 1 µmol/L, PKACα [7, 23]: -6% | %-inhibition at 1 µmol/L, IRAK4 [9, 24]: 8%

CC(C)(C)c1nc(-c2cccc(NS(=O)(=O)c3c(F)cccc3F)c2F)c(-c2ccnc(N)n2)s1 [dabrafenib]
%-inhibition BTK [3, 25]: 60% | %-inhibition, p38γ [5, 26]: 0.311% | %-inhibition BMX [10, 27]: 55% | %-inhibition at 1 µmol/L, IRR [6, 28]: 10% | %-inhibition at 1 µmol/L, RET [8, 29]: 49%

C=CC(=O)N1CCC[C@@H](n2nc(-c3ccc(Oc4ccccc4)cc3)c3c(N)ncnc32)C1 [ibrutinib]
%-inhibition AurA [1, 11]: 30% | %-inhibition AurA/TPX2 [1, 12]: -2.33% | %-inhibition at 1 µmol/L, PLK3 [2, 13]: 1.53% | %-inhibition at 1 µmol/L, CK1γ3 [4, 15]: 4% | %-inhibition, p38γ [5, 16]: 3.51% | %-inhibition at 1 µmol/L, IRR [6, 17]: 12% | %-inhibition at 1 µmol/L, PKACα [7, 18]: -11% | %-inhibition at 1 µmol/L, RET [8, 19]: 88% | %-inhibition at 1 µmol/L, IRAK4 [9, 20]: -5%

CC(=O)Nc1cccc(-n2c(=O)n(C3CC3)c(=O)c3c(Nc4ccc(I)cc4F)n(C)c(=O)c(C)c32)c1 [trametinib]
%-inhibition AurA ([1]; AurA kinase assay, 1 µmol/L single concentration, ref DOI: 10.1371/journal.pone.0092146): -2% | %-inhibition AurA/TPX2 ([1]; AurA/TPX2 kinase assay, 1 µmol/L single concentration, ref DOI: 10.1371/journal.pone.0092146): -5.37% | %-inhibition at 1 µmol/L, PLK3 [2, 22]: -6.59% | %-inhibition BTK [3, 25]: 18% | %-inhibition, p38γ [5, 26]: 0.684% | %-inhibition BMX [10, 27]: -3.22% | %-inhibition at 1 µmol/L, IRR [6, 28]: 1.35% | %-inhibition at 1 µmol/L, PKACα [7, 23]: 8.52% | %-inhibition at 1 µmol/L, RET [8, 29]: -8% | %-inhibition at 1 µmol/L, IRAK4 [9, 24]: -5%
